pIC50: −log10 of the molar value. Like-named read-outs stand apart in the source and are kept apart here. Residues, ends and D or L forms follow the SMILES beside them.
Key:
HLA-A0201 = target: T1, HLA-A0201 (Homo sapiens, UniProt P04439, D140Y/D185E/D98H/E176V/E277Q/G131W/G231S/I119V/I121R/I166T/I218V/L300P/L318F/N151K/N90K/P208A/P217A/Q86G/Q94H/R138H/R169H/T345S); assay: cell-based; type: binding; conditions: for inhibition at 5 µM: read-out: 5μM Inhibition (%); for inhibition at 15 µM: read-out: 15μM Inhibition (%)
T1 construct: expressed in transfected cells; host or cells: HMy2.CIR
In short: (§1)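 HMy2.CIR cells stably transfected with each HLA-A allele were acid-stripped (citric acid/Na2HPO4, pH 3.3, 1 min), neutralized in IMDM with 0.5% BSA, then given β2-m (1 μg/mL) and unlabeled competitor plus the FITC reference peptide. FITC+ cells were measured by flow cytometry, and IC50 was taken from percent competition.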

HLA-A1101 = target: T2, HLA-A1101 (Homo sapiens, UniProt P04439, A114D/D185E/E176A/F33Y/L180Q/S129P/T187R); assay: cell-based; type: binding; conditions: for inhibition at 5 µM: read-out: 5μM Inhibition (%); for inhibition at 15 µM: read-out: 15μM Inhibition (%)
T2 construct: expressed in transfected cells; host or cells: HMy2.CIR
In short: as §1

HLA-A3101 = HLA-A3101 (Homo sapiens, UniProt P04439, A270S/D185E/E176V/E277Q/F33T/G231S/G80R/H175R/I121M/I218V/I322F/K168Q/L300P/L318F/M331R/P217A/Q94H/R138Q/T323A/T345S/T97I/V358M); assay: Peptide competitive binding assay, transfected HMy2.CIR cells, reference ATFQFK(FITC)VER; conditions: for inhibition at 5 µM / inhibition at 15 µM: HLA-A3101 HMy2.CIR cells; for inhibition at 5 µM: competitor peptide 5μM; for inhibition at 15 µM: competitor peptide 15μM
In short: as §1

HLA-A2402 = HLA-A2402 (Homo sapiens, UniProt P04439, D101N/D140Y/D185E/E176V/E190D/F33S/G103R/G107R/I119L/I121M/I306V/K335N/L105A/L180Q/L300P/N151K/N90K/Q86E/Q94H/R106L/R138H/R89G/T104I/T345S/V100E/W191G/Y123F); assay: cell-based; type: binding
In short: as §1

Row | SMILES | pIC50 (HLA-A0201) | inhibition at 5 µM (HLA-A0201; HLA-A0201 HMy2.CIR cells, competitor peptide 5μM, 24 hours, flow cytometry) [%] | inhibition at 15 µM (HLA-A0201; HLA-A0201 HMy2.CIR cells, competitor peptide 15μM, 24 hours, flow cytometry) [%] | pIC50 (HLA-A1101) | inhibition at 5 µM (HLA-A1101; HLA-A1101 HMy2.CIR cells, competitor peptide 5μM, 24 hours, flow cytometry) [%] | inhibition at 15 µM (HLA-A1101; HLA-A1101 HMy2.CIR cells, competitor peptide 15μM, 24 hours, flow cytometry) [%] | inhibition at 5 µM (HLA-A3101; 24 hours, flow cytometry) [%] | inhibition at 15 µM (HLA-A3101; 24 hours, flow cytometry) [%] | pIC50 (HLA-A3101; read-out: Affinity) | inhibition at 5 µM (HLA-A0201; 24 h) [%] | inhibition at 15 µM (HLA-A0201; 24 h) [%] | inhibition at 5 µM (HLA-A1101; 24 h) [%] | inhibition at 15 µM (HLA-A1101; 24 h) [%] | pIC50 (HLA-A2402) | inhibition at 5 µM (HLA-A2402; HLA-A2402 HMy2.CIR cells, competitor peptide 5μM, 24 hours, flow cytometry) [%] | inhibition at 15 µM (HLA-A2402; HLA-A2402 HMy2.CIR cells, competitor peptide 15μM, 24 hours, flow cytometry) [%] | Affinity (HLA-A3101; transfected HMy2.CIR cells expressing HLA-A3101, unlabeled peptide competes with FITC-labeled reference peptide, 24 hours, flow cytometry, class by IC50)
1 | CC(C)C[C@H](NC(=O)[C@H](CCCCN)NC(=O)[C@H](Cc1c[nH]cn1)NC(=O)[C@H](CCCNC(=N)N)NC(=O)[C@H](CS)NC(=O)CNC(=O)CNC(=O)[C@H](CC(C)C)NC(=O)[C@@H](N)C(C)C)C(=O)O [Epitope P36] (H-VLGGCRHKL-OH; N-terminus and C-terminus assumed) | < 4.82 | 22.3 | 37.3 | < 4.82 | 14 | 20.6 | 4.82 | 5.7 | < 4.82 |  |  |  |  |  |  |  | 
2 | CC[C@H](C)[C@H](NC(=O)[C@H](CO)NC(=O)[C@H](CO)NC(=O)[C@@H](NC(=O)[C@@H]1CCCN1C(=O)[C@@H](N)CO)[C@@H](C)CC)C(=O)N[C@@H](Cc1ccccc1)C(=O)N[C@@H](CO)C(=O)N[C@@H](CCCNC(=N)N)C(=O)O [Epitope P38] (H-SPISSIFSR-OH; N-terminus and C-terminus assumed) |  |  |  |  |  |  | 4.04 | 4.49 |  | 0 | 0 | 13.2 | 14.6 |  |  |  | 
3 | CC(C)C[C@H](NC(=O)[C@@H](NC(=O)[C@H](Cc1ccccc1)NC(=O)[C@@H](NC(=O)[C@@H](N)CCCCN)C(C)C)C(C)C)C(=O)NCC(=O)NCC(=O)N[C@@H](CS)C(=O)N[C@@H](CCCNC(=N)N)C(=O)O [Epitope P63] |  |  |  |  |  |  | 35.4 | 55.4 |  |  |  |  |  | < 4.82 | 9.68 | 4.38 | inter
